From ChEMBL document CHEMBL3045779, “Microwave solvent-free condition synthesis and pharmacological evaluation of pyrano[3,2-c]quinolines” (2012)

Columns and labels:
Assay type in all cases: functional
[1] = tested on: Rattus norvegicus; test: Anti-inflammatory activity inRattus norvegicus albino (rat) assessed as inhibition of carrageenan-induced paw edema at 100 mg/kg administered 1 hr prior to carrageenan-challenge measured after 3 hr by plethysmometric analysis relative to control
[2] = tested on: Rattus norvegicus; test: Anti-inflammatory activity inRattus norvegicus albino (rat) assessed as inhibition of carrageenan-induced paw edema at 100 mg/kg administered 1 hr prior to carrageenan-challenge measured after 2 hr by plethysmometric analysis relative to control
[3] = tested on: Rattus norvegicus; test: Anti-inflammatory activity inRattus norvegicus albino (rat) assessed as inhibition of carrageenan-induced paw edema at 100 mg/kg administered 1 hr prior to carrageenan-challenge measured after 1 hr by plethysmometric analysis relative to control
[4] = tested on: Escherichia coli; test: Antibacterial activity against Escherichia coli at 50 ug/ml after 24 hr by paper disk diffusion method; conditions: read-out: IZ
[5] = tested on: Staphylococcus aureus; test: Antibacterial activity against Staphylococcus aureus at 100 ug/ml after 24 hr by paper disk diffusion method; conditions: read-out: IZ
[6] = tested on: Staphylococcus aureus; test: Antibacterial activity against Staphylococcus aureus at 50 ug/ml after 24 hr by paper disk diffusion method; conditions: read-out: IZ
[7] = tested on: Escherichia coli; test: Antibacterial activity against Escherichia coli at 100 ug/ml after 24 hr by paper disk diffusion method; conditions: read-out: IZ

SMILES | inhibition in vivo at 100 mg/kg [1] | inhibition in vivo at 100 mg/kg [2] | inhibition in vivo at 100 mg/kg [3] | zone of inhibition at 50 µg/mL [4] | zone of inhibition at 100 µg/mL [5] | zone of inhibition at 50 µg/mL [6] | zone of inhibition at 100 µg/mL [7]
CCOC(=O)C1=C(N)Oc2c(c(=O)[nH]c3ccccc23)C1c1cccc(Cl)c1 (centres undefined) | 75.9% | 68.5% | 57.6% | 14.1 mm | 15.7 mm | 15.4 mm | –
CCOC(=O)C1=C(N)Oc2c(c(=O)[nH]c3ccccc23)C1c1ccccc1Cl (centres undefined) | 80.6% | 69.4% | 55.6% | 13.7 mm | 16.3 mm | 15.2 mm | 15 mm
CCOC(=O)C1=C(N)Oc2c(c(=O)[nH]c3ccc(C)cc23)C1c1cccc([N+](=O)[O-])c1 (centres undefined) | 75.5% | 70.3% | 54.3% | 16.5 mm | 19.2 mm | 18.1 mm | 17.4 mm
CCOC(=O)C1=C(N)Oc2c(c(=O)[nH]c3ccccc23)C1c1ccc(O)cc1 (centres undefined) | 75.2% | 63.4% | 58.4% | 15.7 mm | 17.6 mm | 16.9 mm | 17 mm
CCOC(=O)C1=C(N)Oc2c(c(=O)[nH]c3ccc(C)cc23)C1c1ccc(O)cc1 (centres undefined) | 69.2% | 70.4% | 57.1% | 16.2 mm | 19.7 mm | 17.6 mm | 18.2 mm
CCOC(=O)C1=C(N)Oc2c(c(=O)[nH]c3ccccc23)C1c1cccc([N+](=O)[O-])c1 (centres undefined) | 79.3% | 69% | 53.5% | 16.1 mm | – | 17.3 mm | 17 mm
CCOC(=O)C1=C(N)Oc2c(c(=O)[nH]c3ccccc23)C1c1ccc(Cl)cc1 (centres undefined) | 80.7% | 66.1% | 56.2% | 15.2 mm | 16.7 mm | 16.3 mm | 16.2 mm
CCOC(=O)C1=C(N)Oc2c(c(=O)[nH]c3ccc(C)cc23)C1c1ccc(Cl)cc1 (centres undefined) | 77.7% | 70.3% | 59.4% | 15.4 mm | 18.5 mm | 15.8 mm | –
CCOC(=O)C1=C(N)Oc2c(c(=O)[nH]c3ccc(C)cc23)C1c1cccc(Cl)c1 (centres undefined) | 75.5% | 69.7% | 56.4% | 14.1 mm | 15.7 mm | 14.6 mm | 15.2 mm
CC1COc2c(N3CCN(C)CC3)c(F)cc3c(=O)c(C(=O)O)cn1c23 (centres undefined) [OFLOXACIN] | – | – | – | – | 24.3 mm | 21.2 mm | –
CCOC(=O)C1=C(N)Oc2c(c(=O)[nH]c3ccc(C)cc23)C1c1ccccc1 (centres undefined) | 75.2% | 71.1% | 56.2% | 15.7 mm | – | 14.7 mm | 16.2 mm
CCOC(=O)C1=C(N)Oc2c(c(O)nc3ccccc23)C1c1ccccc1 (centres undefined) | 75.2% | 61.9% | 54.2% | 15.2 mm | 16.7 mm | 15.6 mm | 16.2 mm
CN[C@@H]1[C@H](O[C@H]2[C@H](O[C@H]3[C@H](O)[C@@H](O)[C@H](N=C(N)N)[C@@H](O)[C@@H]3N=C(N)N)O[C@@H](C)[C@]2(O)C=O)O[C@@H](CO)[C@H](O)[C@H]1O [STREPTOMYCIN] | – | – | – | 20.1 mm | – | – | 25.2 mm
CCOC(=O)C1=C(N)Oc2c(c(=O)[nH]c3ccc(C)cc23)C1c1ccccc1Cl (centres undefined) | 74.2% | 68.1% | 58.1% | 15.4 mm | 17.3 mm | 16.1 mm | 17.3 mm
